Assay results published in paper PMC8699473, “An Easily Expandable Multi-Drug LC-MS Assay for the Simultaneous Quantification of 57 Oral Antitumor Drugs in Human Plasma” (Cancers, 2021).

Key:
[1] = Freeze-thaw stability in spiked pooled human plasma; assay type: physicochemical
[2] = parameters: method as in supplement references [1-55] as printed per drug; conditions: minimum steady-state blood plasma concentration after multiple dose administration; ref supplement references [1-55] per drug; cited from earlier work
[3] = Autosampler stability of ready for injection samples; assay type: physicochemical, human
[4] = Long-term stability in spiked pooled human plasma
[5] = Short-term stability in spiked pooled human plasma (bench-top, 4 °C, 56 °C)

**Q.** Which results are given for COc1cc(Nc2c(C#N)cnc3cc(OCCCN4CCN(C)CC4)c(OC)cc23)c(Cl)cc1Cl [Bosutinib]?
**A.** Freeze-Thaw Accuracy [%] ([1]; validation standard 2xLLOV): 89.9%; Freeze-Thaw Accuracy [%] ([1]; validation standard LLOV): 102.2%; Freeze-Thaw Accuracy [%] ([1]; validation standard MOV): 92.6%; Freeze-Thaw Accuracy [%] ([1]; validation standard ULOV): 94.6%; cmin [2]: 147 ng/mL

**Q.** Which “Freeze-Thaw Accuracy [%]” value ([1]; validation standard 2xLLOV) does the source give for CC[C@H](Nc1ncnc2[nH]cnc12)c1nc2cccc(F)c2c(=O)n1-c1ccccc1 [Idelalisib] here?
**A.** 98.2%

**Q.** And the “Freeze-Thaw Accuracy [%]” value ([1]; validation standard LLOV)?
**A.** 110.6%

**Q.** And the “Freeze-Thaw Accuracy [%]” value ([1]; validation standard MOV)?
**A.** 96.5%

**Q.** And the “Freeze-Thaw Accuracy [%]” value ([1]; validation standard ULOV)?
**A.** 101.5%

**Q.** And the “Autosampler (24h, 4°C) Accuracy [%]” value ([3]; validation standard 2xLLOV)?
**A.** 103.2%

**Q.** What about the “Autosampler (72h, 4°C) Accuracy [%]” value ([3]; validation standard 2xLLOV) of the same compound?
**A.** 98.6%

**Q.** What about the “Autosampler (24h, 4°C) Accuracy [%]” value ([3]; validation standard LLOV) of the same compound?
**A.** 109.4%

**Q.** What about the “Autosampler (72h, 4°C) Accuracy [%]” value ([3]; validation standard LLOV) of the same compound?
**A.** 109.4%

**Q.** What about the “Autosampler (24h, 4°C) Accuracy [%]” value ([3]; validation standard MOV) of the same compound?
**A.** 102.6%

**Q.** What about the “Autosampler (72h, 4°C) Accuracy [%]” value ([3]; validation standard MOV) of the same compound?
**A.** 97.1%

**Q.** And the “Autosampler (24h, 4°C) Accuracy [%]” value ([3]; validation standard ULOV)?
**A.** 103.9%

**Q.** What about the “Autosampler (72h, 4°C) Accuracy [%]” value ([3]; validation standard ULOV) of the same compound?
**A.** 101.4%

**Q.** What about the “cmin” value [2] of the same compound?
**A.** 318 ng/mL

**Q.** For CC(=O)c1c(C)c2cnc(Nc3ccc(N4CCNCC4)cn3)nc2n(C2CCCC2)c1=O [Palbociclib], which “Autosampler (24h, 4°C) Accuracy [%]” value ([3]; validation standard 2xLLOV) is on record?
**A.** 99.9%

**Q.** What about the “Autosampler (72h, 4°C) Accuracy [%]” value ([3]; validation standard 2xLLOV) of the same compound?
**A.** 100.1%

**Q.** And the “Autosampler (24h, 4°C) Accuracy [%]” value ([3]; validation standard LLOV)?
**A.** 99.4%

**Q.** What about the “Autosampler (72h, 4°C) Accuracy [%]” value ([3]; validation standard LLOV) of the same compound?
**A.** 97.9%

**Q.** What about the “Autosampler (24h, 4°C) Accuracy [%]” value ([3]; validation standard MOV) of the same compound?
**A.** 101.0%

**Q.** What about the “Autosampler (72h, 4°C) Accuracy [%]” value ([3]; validation standard MOV) of the same compound?
**A.** 96.9%

**Q.** What about the “Autosampler (24h, 4°C) Accuracy [%]” value ([3]; validation standard ULOV) of the same compound?
**A.** 103.9%

**Q.** What about the “Autosampler (72h, 4°C) Accuracy [%]” value ([3]; validation standard ULOV) of the same compound?
**A.** 102.9%

**Q.** For Cc1[nH]c2ccccc2c1CCNCc1ccc(/C=C/C(=O)NO)cc1 [Panobinostat], which “Freeze-Thaw Accuracy [%]” value ([1]; validation standard 2xLLOV) is on record?
**A.** 107.5%

**Q.** And the “Freeze-Thaw Accuracy [%]” value ([1]; validation standard LLOV)?
**A.** 104.3%

**Q.** What about the “Freeze-Thaw Accuracy [%]” value ([1]; validation standard MOV) of the same compound?
**A.** 98.8%

**Q.** And the “Freeze-Thaw Accuracy [%]” value ([1]; validation standard ULOV)?
**A.** 102.3%

**Q.** And the “Autosampler (24h, 4°C) Accuracy [%]” value ([3]; validation standard 2xLLOV)?
**A.** 100.3%

**Q.** What about the “Autosampler (72h, 4°C) Accuracy [%]” value ([3]; validation standard 2xLLOV) of the same compound?
**A.** 95.4%

**Q.** What about the “Autosampler (24h, 4°C) Accuracy [%]” value ([3]; validation standard LLOV) of the same compound?
**A.** 83.8%

**Q.** What about the “Autosampler (72h, 4°C) Accuracy [%]” value ([3]; validation standard LLOV) of the same compound?
**A.** 73.7%

**Q.** And the “Autosampler (24h, 4°C) Accuracy [%]” value ([3]; validation standard MOV)?
**A.** 102.4%

**Q.** What about the “Autosampler (72h, 4°C) Accuracy [%]” value ([3]; validation standard MOV) of the same compound?
**A.** 101.0%

**Q.** And the “Autosampler (24h, 4°C) Accuracy [%]” value ([3]; validation standard ULOV)?
**A.** 95.4%

**Q.** What about the “Autosampler (72h, 4°C) Accuracy [%]” value ([3]; validation standard ULOV) of the same compound?
**A.** 101.1%

**Q.** And the “Long-term stability, 1 month, -20°C Accuracy [%]” value ([4]; validation standard 2xLLOV)?
**A.** 52.2%

**Q.** What about the “Long-term stability, 1 month, -80°C Accuracy [%]” value ([4]; validation standard 2xLLOV) of the same compound?
**A.** 59.0%

**Q.** And the “Long-term stability, 2 month, -20°C Accuracy [%]” value ([4]; validation standard 2xLLOV)?
**A.** 66.3%

**Q.** And the “Long-term stability, 2 month, -80°C Accuracy [%]” value ([4]; validation standard 2xLLOV)?
**A.** 107.6%

**Q.** What about the “Long-term stability, 3 month, -20°C Accuracy [%]” value ([4]; validation standard 2xLLOV) of the same compound?
**A.** 57.5%

**Q.** And the “Long-term stability, 3 month, -80°C Accuracy [%]” value ([4]; validation standard 2xLLOV)?
**A.** 67.6%

**Q.** And the “Long-term stability, 6 weeks, 4°C, without daylight Accuracy [%]” value ([4]; validation standard 2xLLOV)?
**A.** 11.4%

**Q.** What about the “Long-term stability, 1 month, -20°C Accuracy [%]” value ([4]; validation standard LLOV) of the same compound?
**A.** 38.2%

**Q.** What about the “Long-term stability, 1 month, -80°C Accuracy [%]” value ([4]; validation standard LLOV) of the same compound?
**A.** 33.7%

**Q.** What about the “Long-term stability, 2 month, -20°C Accuracy [%]” value ([4]; validation standard LLOV) of the same compound?
**A.** 21.2%

**Q.** And the “Long-term stability, 2 month, -80°C Accuracy [%]” value ([4]; validation standard LLOV)?
**A.** 29.9%

**Q.** What about the “Long-term stability, 3 month, -20°C Accuracy [%]” value ([4]; validation standard LLOV) of the same compound?
**A.** 8.2%

**Q.** What about the “Long-term stability, 3 month, -80°C Accuracy [%]” value ([4]; validation standard LLOV) of the same compound?
**A.** 34.0%

**Q.** What about the “Long-term stability, 1 month, -20°C Accuracy [%]” value ([4]; validation standard MOV) of the same compound?
**A.** 82.0%

**Q.** And the “Long-term stability, 1 month, -80°C Accuracy [%]” value ([4]; validation standard MOV)?
**A.** 84.1%

**Q.** And the “Long-term stability, 2 month, -20°C Accuracy [%]” value ([4]; validation standard MOV)?
**A.** 75.7%

**Q.** What about the “Long-term stability, 2 month, -80°C Accuracy [%]” value ([4]; validation standard MOV) of the same compound?
**A.** 87.5%

**Q.** And the “Long-term stability, 3 month, -20°C Accuracy [%]” value ([4]; validation standard MOV)?
**A.** 66.1%

**Q.** And the “Long-term stability, 3 month, -80°C Accuracy [%]” value ([4]; validation standard MOV)?
**A.** 82.1%

**Q.** And the “Long-term stability, 6 weeks, 4°C, without daylight Accuracy [%]” value ([4]; validation standard MOV)?
**A.** 67.6%

**Q.** And the “Long-term stability, 1 month, -20°C Accuracy [%]” value ([4]; validation standard ULOV)?
**A.** 89.6%

**Q.** What about the “Long-term stability, 1 month, -80°C Accuracy [%]” value ([4]; validation standard ULOV) of the same compound?
**A.** 89.9%

**Q.** What about the “Long-term stability, 2 month, -20°C Accuracy [%]” value ([4]; validation standard ULOV) of the same compound?
**A.** 98.1%

**Q.** What about the “Long-term stability, 2 month, -80°C Accuracy [%]” value ([4]; validation standard ULOV) of the same compound?
**A.** 99.4%

**Q.** And the “Long-term stability, 3 month, -20°C Accuracy [%]” value ([4]; validation standard ULOV)?
**A.** 87.5%

**Q.** And the “Long-term stability, 3 month, -80°C Accuracy [%]” value ([4]; validation standard ULOV)?
**A.** 100.2%

**Q.** What about the “Long-term stability, 6 weeks, 4°C, without daylight Accuracy [%]” value ([4]; validation standard ULOV) of the same compound?
**A.** 79.4%

**Q.** What about the “Short-time stability (1h, 56°C) Accuracy [%]” value ([5]; validation standard 2xLLOV) of the same compound?
**A.** 27.6%

**Q.** What about the “Short-time stability (24h, 4°C, without daylight) Accuracy [%]” value ([5]; validation standard 2xLLOV) of the same compound?
**A.** 81.5%

**Q.** What about the “Short-time stability (24h, RT, with daylight) Accuracy [%]” value ([5]; validation standard 2xLLOV) of the same compound?
**A.** 53.1%

**Q.** And the “Short-time stability (24h, RT, without daylight) Accuracy [%]” value ([5]; validation standard 2xLLOV)?
**A.** 45.4%

**Q.** What about the “Short-time stability (1h, 56°C) Accuracy [%]” value ([5]; validation standard LLOV) of the same compound?
**A.** 1.9%

**Q.** And the “Short-time stability (24h, 4°C, without daylight) Accuracy [%]” value ([5]; validation standard LLOV)?
**A.** 66.1%

**Q.** And the “Short-time stability (24h, RT, with daylight) Accuracy [%]” value ([5]; validation standard LLOV)?
**A.** -0.2%

**Q.** And the “Short-time stability (24h, RT, without daylight) Accuracy [%]” value ([5]; validation standard LLOV)?
**A.** 52.8%

**Q.** What about the “Short-time stability (1h, 56°C) Accuracy [%]” value ([5]; validation standard MOV) of the same compound?
**A.** 48.8%

**Q.** And the “Short-time stability (24h, 4°C, without daylight) Accuracy [%]” value ([5]; validation standard MOV)?
**A.** 93.6%

**Q.** What about the “Short-time stability (24h, RT, with daylight) Accuracy [%]” value ([5]; validation standard MOV) of the same compound?
**A.** 92.2%

**Q.** What about the “Short-time stability (24h, RT, without daylight) Accuracy [%]” value ([5]; validation standard MOV) of the same compound?
**A.** 96.2%

**Q.** And the “Short-time stability (1h, 56°C) Accuracy [%]” value ([5]; validation standard ULOV)?
**A.** 46.3%

**Q.** And the “Short-time stability (24h, 4°C, without daylight) Accuracy [%]” value ([5]; validation standard ULOV)?
**A.** 89.2%

**Q.** What about the “Short-time stability (24h, RT, with daylight) Accuracy [%]” value ([5]; validation standard ULOV) of the same compound?
**A.** 96.0%

**Q.** And the “Short-time stability (24h, RT, without daylight) Accuracy [%]” value ([5]; validation standard ULOV)?
**A.** 100.4%
